Laboratory results as given in ChEMBL document CHEMBL1145958, “Furoyl and benzofuroyl pyrroloquinolones as potent and selective PDE5 inhibitors for treatment of erectile dysfunction” (J Med Chem, 2003).

What was measured:
[1] = biological target: T1, cGMP-specific 3',5'-cyclic phosphodiesterase (Homo sapiens, UniProt O76074); experiment: Inhibitory activity against Phosphodiesterase 5 (PDE5) was evaluated
[2] = Selective inhibition of PDE5 versus PDE6 in retinal cone
[3] = Selective inhibition of PDE5 versus PDE6 in retinal rod
Canis familiaris [4] = species on record: Canis familiaris; experiment: Dose required for potentiated ICP increase in dogs; type: functional, Canis lupus familiaris
Canis familiaris [5] = species on record: Canis familiaris; experiment: Effective dose in dogs; type: functional; details: Canis lupus familiaris
[6] = biological target: T1, cGMP-specific 3',5'-cyclic phosphodiesterase; experiment: Inhibition of PDE5

| Compound | Ki [1] | further results |
| --- | --- | --- |
| O=C(c1ccc(-c2ccc([N+](=O)[O-])cc2)o1)N1Cc2c(nc3ccccc3c2O)C1c1ccc2c(c1)OCO2 (stereo not drawn) | 0.61 nM |  |
| CN1CCN(C(=O)c2ccc(-c3ccc(C(=O)N4Cc5c(nc6ccccc6c5O)C4c4ccc5c(c4)OCO5)o3)cc2)CC1 (racemic) [listing 2 of 2 here] |  | Ratio [2]: 2; Ratio [3]: 2 |
| CN1CCN(C(=O)c2ccc(-c3ccc(C(=O)N4Cc5c(nc6ccccc6c5O)C4c4ccc5c(c4)OCO5)o3)cc2)CC1 (single isomer, unassigned; (-)) [listing 1 of 2 here] |  | Ratio [2]: 13.2; Ratio [3]: 13 |
| O=C(c1ccc(-c2cccc([N+](=O)[O-])c2)o1)N1Cc2c(nc3ccccc3c2O)C1c1ccc2c(c1)OCO2 (stereo not drawn) | 1.3 nM |  |
| O=C(c1ccc(-c2cccnc2)o1)N1Cc2c(nc3ccccc3c2O)C1c1ccc2c(c1)OCO2 (stereo not drawn) | 0.15 nM | Ratio [2]: 108; Ratio [3]: 144 |
| O=C(c1ccccc1)N1Cc2c(nc3ccccc3c2O)C1c1ccc2c(c1)OCO2 (stereo not drawn) | 2.49 nM |  |
| O=C(c1cc2ccc(O)cc2o1)N1Cc2c(nc3ccccc3c2O)C1c1ccc2c(c1)OCO2 (stereo not drawn) | 0.35 nM | Ratio [2]: 29; Ratio [3]: 31 |
| O=C(c1ccc(-c2cccc(C(F)(F)F)c2)o1)N1Cc2c(nc3ccccc3c2O)C1c1ccc2c(c1)OCO2 (stereo not drawn) | 0.98 nM |  |
| CN(C)c1ccc(-c2ccc(C(=O)N3Cc4c(nc5ccccc5c4O)C3c3ccc4c(c3)OCO4)o2)cc1 (stereo not drawn) | 3.74 nM |  |
| O=C(c1ccc(-c2ccc(OCCN3CCCC3)cc2)o1)N1Cc2c(nc3ccccc3c2O)C1c1ccc2c(c1)OCO2 (stereo not drawn) | 0.76 nM |  |
| O=C(c1ccc(-c2cccc(CO)c2)o1)N1Cc2c(nc3ccccc3c2O)C1c1ccc2c(c1)OCO2 (stereo not drawn) | 0.47 nM |  |
| O=C(c1ccc(Br)o1)N1Cc2c(nc3ccccc3c2O)C1c1ccc2c(c1)OCO2 (stereo not drawn) | 2.07 nM |  |
| COc1ccc(-c2ccc(C(=O)N3Cc4c(nc5ccccc5c4O)C3c3ccc4c(c3)OCO4)o2)cc1 (stereo not drawn) | 1.71 nM |  |
| O=C(c1ccc(-c2ccncc2)o1)N1Cc2c(nc3ccccc3c2O)C1c1ccc2c(c1)OCO2 (stereo not drawn) | 0.31 nM | Ratio [2]: 34; Ratio [3]: 23 |
| CN1CCN(C(=O)c2ccc(-c3ccc(C(=O)N4Cc5c(nc6ccccc6c5O)C4c4ccc5c(c4)CCO5)o3)cc2)CC1 (stereo not drawn) |  | Ratio [2]: 12; Ratio [3]: 13 |
| N#Cc1ccc(-c2ccc(C(=O)N3Cc4c(nc5ccccc5c4O)C3c3ccc4c(c3)OCO4)o2)cc1 (stereo not drawn) | 2.71 nM |  |
| O=C(c1ccc(-c2cccnc2)o1)N1Cc2c(nc3ccccc3c2O)C1c1ccc2c(c1)CCO2 (stereo not drawn) | 0.53 nM |  |
| O=C(c1ccc(-c2ccsc2)o1)N1Cc2c(nc3ccccc3c2O)C1c1ccc2c(c1)OCO2 (stereo not drawn) | 0.71 nM |  |
| O=C(c1ccc(-c2ccc(CO)cc2)o1)N1Cc2c(nc3ccccc3c2O)C1c1ccc2c(c1)OCO2 (stereo not drawn) | 0.61 nM |  |
| O=C(c1ccc(-c2ccccc2)o1)N1Cc2c(nc3ccccc3c2O)C1c1ccc2c(c1)OCO2 (stereo not drawn) | 2.09 nM |  |
| O=C(c1ccc(-c2ccco2)o1)N1Cc2c(nc3ccccc3c2O)C1c1ccc2c(c1)OCO2 (stereo not drawn) | 4.66 nM |  |
| O=C(c1cc2ccc(O)cc2o1)N1Cc2c(nc3ccccc3c2O)C1c1ccc2c(c1)CCO2 (stereo not drawn) | 1.74 nM | Ratio [2]: 646; Ratio [3]: 291 |
| CS(=O)(=O)Nc1ccc(-c2ccc(C(=O)N3Cc4c(nc5ccccc5c4O)C3c3ccc4c(c3)OCO4)o2)cc1 (stereo not drawn) | 0.24 nM | Dose (Canis familiaris [4]): 0.3 mg/kg; ED50 (Canis familiaris [5]): 0.284 mg/kg |
| O=Cc1ccc(-c2ccc(C(=O)N3Cc4c(nc5ccccc5c4O)C3c3ccc4c(c3)OCO4)o2)cc1 (stereo not drawn) |  | Ki [6]: 2.59 nM |

Further lines, with some results ahead:

| Ki [1] | Compound | further results |
| --- | --- | --- |
| 1.82 nM | CN1CCN(C(=O)c2ccc(-c3ccc(C(=O)N4Cc5c(nc6ccccc6c5O)C4c4ccc5c(c4)OCO5)o3)cc2)CC1 (racemic) [listing 1 of 2 here] |  |
| 1.01 nM | O=C(O)c1ccc(-c2ccc(C(=O)N3Cc4c(nc5ccccc5c4O)C3c3ccc4c(c3)OCO4)o2)cc1 (stereo not drawn) |  |
| 2.64 nM | Cc1ccc(-c2ccc(C(=O)N3Cc4c(nc5ccccc5c4O)C3c3ccc4c(c3)OCO4)o2)cc1 (stereo not drawn) |  |
| 0.73 nM | O=C(c1ccc(-c2ccc(O)cc2)o1)N1Cc2c(nc3ccccc3c2O)C1c1ccc2c(c1)OCO2 (stereo not drawn) |  |
| 0.2 nM | CN1CCN(C(=O)c2ccc(-c3ccc(C(=O)N4Cc5c(nc6ccccc6c5O)C4c4ccc5c(c4)OCO5)o3)cc2)CC1 (single isomer, unassigned; (-)) [listing 2 of 2 here] |  |
| 0.99 nM | COC(=O)c1ccc(-c2ccc(C(=O)N3Cc4c(nc5ccccc5c4O)C3c3ccc4c(c3)OCO4)o2)cc1 (stereo not drawn) |  |
